Reference: paper PMC4628560 (Nature cell biology, 2015)
Read-outs that look alike come from different tables or passages of the source.

Legend:
[1] = biological target: T1, 6-phosphogluconate dehydrogenase (6PGD) (Homo sapiens, UniProt P52209); assay: tryptophan fluorescence-based binding assay with purified human 6PGD
T1 sequence (P52209 1-483): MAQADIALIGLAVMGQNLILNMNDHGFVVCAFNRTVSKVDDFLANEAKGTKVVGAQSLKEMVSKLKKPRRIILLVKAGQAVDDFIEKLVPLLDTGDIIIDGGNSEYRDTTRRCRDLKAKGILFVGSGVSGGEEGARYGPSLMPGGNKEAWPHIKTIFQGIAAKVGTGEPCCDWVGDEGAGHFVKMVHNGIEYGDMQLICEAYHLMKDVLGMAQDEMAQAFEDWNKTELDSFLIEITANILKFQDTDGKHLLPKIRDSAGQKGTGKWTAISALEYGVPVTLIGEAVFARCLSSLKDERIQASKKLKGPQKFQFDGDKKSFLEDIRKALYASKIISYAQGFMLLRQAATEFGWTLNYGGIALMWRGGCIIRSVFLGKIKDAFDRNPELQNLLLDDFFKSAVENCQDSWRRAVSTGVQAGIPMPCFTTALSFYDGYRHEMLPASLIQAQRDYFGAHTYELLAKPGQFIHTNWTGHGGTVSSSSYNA

[2] = biological target: T1, 6-phosphogluconate dehydrogenase (6PGD); assay: as above; remark: listed apart in the source

Kd [1]	Kd [2]	SMILES
26 µM		COc1cc(O)c2c(c1)C(=O)c1cc(C)cc(O)c1C2=O [Physcion, 1,8-Dihydroxy-3-methoxy-6-methyl-anthraquinone]
	17.1 µM	COc1cccc2c1C(=O)c1c(O)cccc1C2=O [S3, 1-Hydroxy-8-methoxy-anthraquinon]
